According to publication PMC8791477, “Evaluation of SARS-CoV-2 entry, inflammation and new therapeutics in human lung tissue cells” (PLoS Pathogens, 2022):

How the values were obtained:
[1] = in vitro; settings: African green monkey, CC50 Vero E6, absence of virus
[2] = in vitro; settings: human, CC50 HLT, absence of virus
[3] = test system: DNA-dependent DNA polymerases of some DNA viruses; settings: cited from earlier work

For `Nc1ncnc2c1ncn2[C@@H]1O[C@H](CO)[C@@H](O)[C@@H]1O` [Vidarabine], the CC50 [1] is given as greater than 100 µM, the CC50 [2] is given as greater than 100 µM and the “inhibition of viral DNA polymerases relative to those of host cells” value [3] is given as “Purine nucleoside analogue ^80. Competitively inhibits DNA-dependent DNA polymerases of some DNA viruses approximately 40 times more than those of host cells ^80”.
